The record followed here is patent publication US7070778B2, “Therapeutical combination against cancer” (Laboratoire Goemar SA, priority 2003, dated 2006).

The test system of this test is BT-474 human breast carcinoma. Kind of test: Effect on the tumor growth: BT-474 human breast carcinoma xenograft in nude mice. The format is in vivo. The conditions noted are these: for Average daily weight of the tumor: Group 6: Paclitaxel 16 mg/kg i.p. once a day for 5 days. The method, then:
Female nude mice (nulnu) between 5 and 6 weeks of age weighing approximately 20 g were obtained from Harlan, Inc. (Madison, Wis.). The BT-474 human breast carcinoma cell line was obtained from the American Type Culture Collection (ATCC). BT-474 was established by E. Lasfargues and W. G. Coutinho from a solid carcinoma of the breast obtained from a patient (2). Twenty-one-day release 17β-estradiol pellets at 0.25 mg (Innovative Research of America) were implanted subcutaneously into each mouse. The following day, animals were implanted s.c. by trocar with fragments of human tumor carcinomas harvested from s.c. growing tumors in nude mice hosts. When the tumors were approximately 40 mg in size (24 days following inoculation), the animals were pair-matched into treatment and control groups. All of the groups contained 9 mice. All of the animals were ear-tagged and followed individually throughout the experiment.
The mice of each group were administered intra peritoneally with 2 ml of the following composition:
Group 1: (control) sterile H2O, 5 times a day
Mice were weighed twice weekly, and tumor measurements were obtained using calipers twice weekly, starting on Day 1. These tumor measurements were converted to mg tumor weight by the standard formula, (W^2×L)/2 (2). The experiment was terminated when the control group tumor size reached an average of 500 mg. Upon termination (Day 46), the mice were weighed, sacrificed and their tumors were excised. The tumors were weighed, and the mean tumor weight per group was calculated.
With this agent, the final weight of a given tumor was subtracted from its own weight at the start of treatment on Day 1. This difference was divided by the initial tumor weight to give the % regression. A mean % tumor regression was calculated from data from mice in a group that experienced tumor regressions.
(A xenograft is tissue or cells of one species grown in another, often human tumour cells in immunodeficient mice.)

Turning to `CC(=O)O[C@H]1C(=O)[C@@]2(C)[C@H]([C@H](OC(=O)c3ccccc3)[C@]3(O)C[C@H](OC(=O)[C@H](O)[C@@H](NC(=O)c4ccccc4)c4ccccc4)C(C)=C1C3(C)C)[C@]1(OC(C)=O)CO[C@@H]1C[C@@H]2O` [Paclitaxel], the “tumor regression (in words)” value (Paclitaxel 16 mg/kg i.p. once a day for 5 days) was “caused tumor regression”. Besides, the “Average daily weight of the tumor” value is, setting by setting: (day 5) 3906 mg; (day 9) 54.2 mg; (day 16) 77.3 mg; (day 19) 79.4 mg; (day 23) 108.0 mg; (day 26) 123.8 mg. Further, the “Average daily weight of the tumor” value is recorded as 149.5 mg (day 29); 188.8 mg (day 32); 220.3 mg (day 36); 244.8 mg (day 39); 299.6 mg (day 43); 376.3 mg (day 46).
